{
  "source": "ChEMBL document CHEMBL4507319",
  "about": "(2021)",
  "key": {"[1]": {"biological_target": "TRAF2 and NCK-interacting protein kinase (Homo sapiens) (UniProt Q9UKE5)", "sequence (Q9UKE5 whole entry, looked up)": "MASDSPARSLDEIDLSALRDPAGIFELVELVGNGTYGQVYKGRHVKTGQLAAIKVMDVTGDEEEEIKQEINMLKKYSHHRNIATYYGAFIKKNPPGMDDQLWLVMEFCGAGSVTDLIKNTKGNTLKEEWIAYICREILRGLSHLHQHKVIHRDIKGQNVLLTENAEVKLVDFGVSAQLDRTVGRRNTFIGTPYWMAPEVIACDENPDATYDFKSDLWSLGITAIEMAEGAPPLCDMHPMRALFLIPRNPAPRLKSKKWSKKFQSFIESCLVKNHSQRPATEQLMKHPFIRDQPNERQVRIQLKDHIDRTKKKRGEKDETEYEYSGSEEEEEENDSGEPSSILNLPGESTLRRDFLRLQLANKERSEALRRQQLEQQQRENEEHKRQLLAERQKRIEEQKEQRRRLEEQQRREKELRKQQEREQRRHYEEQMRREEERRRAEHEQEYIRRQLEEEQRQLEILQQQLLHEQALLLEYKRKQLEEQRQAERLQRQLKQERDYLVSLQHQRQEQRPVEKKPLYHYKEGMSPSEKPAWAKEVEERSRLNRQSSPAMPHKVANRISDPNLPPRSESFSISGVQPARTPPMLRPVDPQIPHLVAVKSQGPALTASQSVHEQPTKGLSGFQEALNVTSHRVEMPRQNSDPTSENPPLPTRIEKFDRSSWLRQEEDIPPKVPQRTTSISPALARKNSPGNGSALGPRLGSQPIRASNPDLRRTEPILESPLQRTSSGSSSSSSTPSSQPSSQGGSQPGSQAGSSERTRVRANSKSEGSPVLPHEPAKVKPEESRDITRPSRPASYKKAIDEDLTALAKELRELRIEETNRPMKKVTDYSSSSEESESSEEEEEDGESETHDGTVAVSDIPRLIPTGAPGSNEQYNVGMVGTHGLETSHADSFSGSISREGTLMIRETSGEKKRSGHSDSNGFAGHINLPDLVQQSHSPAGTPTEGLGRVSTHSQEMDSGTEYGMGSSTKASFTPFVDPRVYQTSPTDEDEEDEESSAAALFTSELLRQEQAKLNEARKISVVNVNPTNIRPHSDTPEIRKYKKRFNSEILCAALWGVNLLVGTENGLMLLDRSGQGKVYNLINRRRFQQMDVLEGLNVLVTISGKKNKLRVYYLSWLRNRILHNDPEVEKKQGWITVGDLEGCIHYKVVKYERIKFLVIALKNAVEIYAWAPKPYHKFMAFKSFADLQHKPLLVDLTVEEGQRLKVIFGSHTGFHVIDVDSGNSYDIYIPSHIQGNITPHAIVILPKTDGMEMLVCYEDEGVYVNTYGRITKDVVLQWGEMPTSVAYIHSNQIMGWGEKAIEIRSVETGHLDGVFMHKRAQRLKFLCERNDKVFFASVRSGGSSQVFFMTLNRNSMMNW", "conditions": "Compound concentration 1000.0 nM"}, "[2]": {"tested_on": "Hepatocyte growth factor receptor (Homo sapiens), P08581 [Y1235D]", "conditions": "Compound concentration 1000.0 nM"}, "[3]": {"biological_target": "T1, Myosin-IIIb (Homo sapiens) (UniProt Q8WXR4)", "T1 sequence (whole entry)": "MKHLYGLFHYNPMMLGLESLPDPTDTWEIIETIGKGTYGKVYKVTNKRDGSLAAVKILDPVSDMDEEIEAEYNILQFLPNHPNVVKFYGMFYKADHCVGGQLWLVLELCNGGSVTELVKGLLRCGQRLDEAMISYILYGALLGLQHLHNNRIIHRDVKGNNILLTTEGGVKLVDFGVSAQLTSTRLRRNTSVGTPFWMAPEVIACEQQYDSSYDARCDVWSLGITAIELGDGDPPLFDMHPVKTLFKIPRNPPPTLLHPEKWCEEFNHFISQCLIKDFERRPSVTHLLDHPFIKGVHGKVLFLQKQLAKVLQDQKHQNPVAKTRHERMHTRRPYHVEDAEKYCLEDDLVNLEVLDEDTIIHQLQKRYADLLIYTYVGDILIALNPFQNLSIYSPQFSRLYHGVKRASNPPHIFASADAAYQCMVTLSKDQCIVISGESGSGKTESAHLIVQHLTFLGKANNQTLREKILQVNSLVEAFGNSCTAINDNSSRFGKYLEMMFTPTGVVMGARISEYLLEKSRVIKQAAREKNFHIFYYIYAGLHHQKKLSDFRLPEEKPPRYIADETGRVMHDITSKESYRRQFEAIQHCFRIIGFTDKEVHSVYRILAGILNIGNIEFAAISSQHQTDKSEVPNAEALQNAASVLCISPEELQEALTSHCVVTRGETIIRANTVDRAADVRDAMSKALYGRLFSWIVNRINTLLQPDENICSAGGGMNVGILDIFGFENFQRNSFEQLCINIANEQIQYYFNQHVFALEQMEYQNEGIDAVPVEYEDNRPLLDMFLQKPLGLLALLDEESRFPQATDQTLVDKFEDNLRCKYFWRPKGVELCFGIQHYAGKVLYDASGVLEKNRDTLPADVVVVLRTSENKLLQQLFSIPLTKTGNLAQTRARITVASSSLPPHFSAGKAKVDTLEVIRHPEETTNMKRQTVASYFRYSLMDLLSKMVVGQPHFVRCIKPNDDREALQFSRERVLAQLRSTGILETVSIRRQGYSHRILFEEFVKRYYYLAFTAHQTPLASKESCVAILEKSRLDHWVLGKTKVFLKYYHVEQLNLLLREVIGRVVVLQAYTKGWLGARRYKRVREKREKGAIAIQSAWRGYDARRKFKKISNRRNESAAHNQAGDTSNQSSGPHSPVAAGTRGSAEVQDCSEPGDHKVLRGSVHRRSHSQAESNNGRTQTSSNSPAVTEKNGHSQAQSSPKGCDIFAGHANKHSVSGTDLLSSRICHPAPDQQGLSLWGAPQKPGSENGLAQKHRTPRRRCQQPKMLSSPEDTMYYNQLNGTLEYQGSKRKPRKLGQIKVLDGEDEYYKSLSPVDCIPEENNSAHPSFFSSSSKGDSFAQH", "conditions": "Compound concentration 1000.0 nM"}, "[4]": {"biological_target": "Tyrosine-protein kinase Lyn (Homo sapiens) (UniProt P07948)", "sequence (P07948 2-512 limits assumed)": "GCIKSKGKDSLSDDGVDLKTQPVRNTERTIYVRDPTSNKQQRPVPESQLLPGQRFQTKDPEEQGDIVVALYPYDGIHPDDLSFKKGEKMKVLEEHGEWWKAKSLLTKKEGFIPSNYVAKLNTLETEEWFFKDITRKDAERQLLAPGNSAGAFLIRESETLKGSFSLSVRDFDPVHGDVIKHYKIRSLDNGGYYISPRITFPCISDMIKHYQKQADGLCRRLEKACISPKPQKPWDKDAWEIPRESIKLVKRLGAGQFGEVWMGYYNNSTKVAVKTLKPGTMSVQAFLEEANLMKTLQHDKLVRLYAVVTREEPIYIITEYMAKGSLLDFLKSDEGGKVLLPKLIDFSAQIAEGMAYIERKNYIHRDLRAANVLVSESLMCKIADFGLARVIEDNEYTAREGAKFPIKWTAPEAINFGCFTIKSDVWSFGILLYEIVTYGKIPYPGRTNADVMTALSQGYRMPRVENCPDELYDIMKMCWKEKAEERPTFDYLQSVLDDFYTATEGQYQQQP", "conditions": "Compound concentration 1000.0 nM"}, "[5]": {"biological_target": "Cyclin-dependent kinase 3 (Homo sapiens) (UniProt Q00526)", "sequence (Q00526 whole entry, looked up)": "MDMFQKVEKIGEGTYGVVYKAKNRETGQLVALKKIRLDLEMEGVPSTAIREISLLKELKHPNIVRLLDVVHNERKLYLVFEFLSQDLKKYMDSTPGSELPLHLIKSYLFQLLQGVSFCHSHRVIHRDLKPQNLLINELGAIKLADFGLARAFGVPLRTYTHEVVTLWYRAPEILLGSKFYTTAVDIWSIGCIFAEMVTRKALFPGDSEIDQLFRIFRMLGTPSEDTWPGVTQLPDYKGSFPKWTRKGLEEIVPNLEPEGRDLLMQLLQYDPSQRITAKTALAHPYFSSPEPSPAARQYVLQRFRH", "conditions": "Compound concentration 1000.0 nM"}, "[6]": {"biological_target": "5'-AMP-activated protein kinase catalytic subunit alpha-1 (Homo sapiens, UniProt Q13131)", "sequence (Q13131 whole entry)": "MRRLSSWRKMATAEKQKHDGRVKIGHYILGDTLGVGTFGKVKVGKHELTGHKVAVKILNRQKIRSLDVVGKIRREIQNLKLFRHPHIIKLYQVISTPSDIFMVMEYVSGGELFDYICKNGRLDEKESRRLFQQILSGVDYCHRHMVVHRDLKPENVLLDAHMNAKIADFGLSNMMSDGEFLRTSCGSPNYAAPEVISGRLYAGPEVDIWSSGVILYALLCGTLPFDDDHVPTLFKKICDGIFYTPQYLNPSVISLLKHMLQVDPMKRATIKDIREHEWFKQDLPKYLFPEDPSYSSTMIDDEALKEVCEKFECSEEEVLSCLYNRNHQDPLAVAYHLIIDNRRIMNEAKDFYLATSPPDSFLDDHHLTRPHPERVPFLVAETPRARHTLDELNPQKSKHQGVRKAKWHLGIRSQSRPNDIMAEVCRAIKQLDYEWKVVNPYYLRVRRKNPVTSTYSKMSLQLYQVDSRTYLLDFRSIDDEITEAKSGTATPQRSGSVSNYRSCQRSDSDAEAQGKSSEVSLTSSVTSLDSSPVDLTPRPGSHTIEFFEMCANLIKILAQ", "test": "Biochemical PRKAA1 assay with 2 mM ATP (Bayer in house)"}, "[7]": {"tested_on": "Epidermal growth factor receptor (Homo sapiens), P00533 [G719S]", "conditions": "Compound concentration 1000.0 nM"}, "[8]": {"biological_target": "Ribosomal protein S6 kinase alpha-5 (Homo sapiens, UniProt O75582)", "sequence (O75582 whole entry, looked up)": "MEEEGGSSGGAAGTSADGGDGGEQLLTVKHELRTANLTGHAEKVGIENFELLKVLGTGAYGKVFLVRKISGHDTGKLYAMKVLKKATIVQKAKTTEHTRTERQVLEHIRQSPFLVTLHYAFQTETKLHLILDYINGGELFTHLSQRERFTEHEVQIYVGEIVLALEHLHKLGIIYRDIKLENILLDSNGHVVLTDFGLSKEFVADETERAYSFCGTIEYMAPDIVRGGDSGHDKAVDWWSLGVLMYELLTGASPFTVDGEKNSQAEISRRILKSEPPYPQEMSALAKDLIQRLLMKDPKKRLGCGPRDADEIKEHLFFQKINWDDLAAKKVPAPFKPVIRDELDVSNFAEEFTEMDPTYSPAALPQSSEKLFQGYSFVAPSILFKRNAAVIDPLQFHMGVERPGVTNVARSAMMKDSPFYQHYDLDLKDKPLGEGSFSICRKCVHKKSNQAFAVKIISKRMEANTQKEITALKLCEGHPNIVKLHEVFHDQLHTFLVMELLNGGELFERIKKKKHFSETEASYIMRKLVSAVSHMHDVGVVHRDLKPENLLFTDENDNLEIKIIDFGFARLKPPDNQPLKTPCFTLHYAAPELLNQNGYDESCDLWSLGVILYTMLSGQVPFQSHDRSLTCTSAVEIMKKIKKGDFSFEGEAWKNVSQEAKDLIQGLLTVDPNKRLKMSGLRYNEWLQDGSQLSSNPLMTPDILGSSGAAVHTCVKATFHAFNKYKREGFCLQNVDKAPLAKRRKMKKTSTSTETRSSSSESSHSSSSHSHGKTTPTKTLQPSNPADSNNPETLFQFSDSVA", "conditions": "Compound concentration 1000.0 nM"}, "[9]": {"biological_target": "Mitogen-activated protein kinase kinase kinase 3 (Homo sapiens) (UniProt Q99759)", "sequence (Q99759 whole entry)": "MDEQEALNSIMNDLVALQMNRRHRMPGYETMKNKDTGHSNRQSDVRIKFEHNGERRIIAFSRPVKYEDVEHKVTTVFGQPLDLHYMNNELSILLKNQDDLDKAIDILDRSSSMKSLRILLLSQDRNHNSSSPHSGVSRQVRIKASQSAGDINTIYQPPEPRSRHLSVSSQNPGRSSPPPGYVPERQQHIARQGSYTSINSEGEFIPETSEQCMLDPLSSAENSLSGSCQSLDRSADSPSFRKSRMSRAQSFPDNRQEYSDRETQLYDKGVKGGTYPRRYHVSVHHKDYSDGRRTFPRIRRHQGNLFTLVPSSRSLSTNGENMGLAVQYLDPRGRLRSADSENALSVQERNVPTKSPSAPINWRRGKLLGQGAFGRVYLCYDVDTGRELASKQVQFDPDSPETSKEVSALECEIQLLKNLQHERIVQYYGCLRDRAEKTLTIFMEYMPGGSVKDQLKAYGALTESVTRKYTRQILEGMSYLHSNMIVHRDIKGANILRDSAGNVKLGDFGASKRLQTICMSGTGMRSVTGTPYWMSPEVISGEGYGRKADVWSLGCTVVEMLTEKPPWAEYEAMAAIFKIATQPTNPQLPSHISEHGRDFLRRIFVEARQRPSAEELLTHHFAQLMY", "conditions": "Compound concentration 1000.0 nM"}, "[10]": {"biological_target": "Serine/threonine-protein kinase Nek6 (Homo sapiens) (UniProt Q9HC98)", "sequence (Q9HC98 whole entry)": "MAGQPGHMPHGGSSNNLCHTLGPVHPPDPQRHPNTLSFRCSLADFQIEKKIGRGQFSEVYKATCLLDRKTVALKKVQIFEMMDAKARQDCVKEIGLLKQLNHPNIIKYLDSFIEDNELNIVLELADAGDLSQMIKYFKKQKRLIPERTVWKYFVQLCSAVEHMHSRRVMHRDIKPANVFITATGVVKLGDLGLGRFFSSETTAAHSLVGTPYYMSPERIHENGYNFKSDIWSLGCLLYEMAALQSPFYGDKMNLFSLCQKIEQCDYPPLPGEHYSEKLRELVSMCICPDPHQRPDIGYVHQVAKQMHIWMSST", "conditions": "Compound concentration 1000.0 nM"}, "[11]": {"biological_target": "T2, Protein kinase C epsilon type (Homo sapiens) (UniProt Q02156)", "T2 sequence (whole entry)": "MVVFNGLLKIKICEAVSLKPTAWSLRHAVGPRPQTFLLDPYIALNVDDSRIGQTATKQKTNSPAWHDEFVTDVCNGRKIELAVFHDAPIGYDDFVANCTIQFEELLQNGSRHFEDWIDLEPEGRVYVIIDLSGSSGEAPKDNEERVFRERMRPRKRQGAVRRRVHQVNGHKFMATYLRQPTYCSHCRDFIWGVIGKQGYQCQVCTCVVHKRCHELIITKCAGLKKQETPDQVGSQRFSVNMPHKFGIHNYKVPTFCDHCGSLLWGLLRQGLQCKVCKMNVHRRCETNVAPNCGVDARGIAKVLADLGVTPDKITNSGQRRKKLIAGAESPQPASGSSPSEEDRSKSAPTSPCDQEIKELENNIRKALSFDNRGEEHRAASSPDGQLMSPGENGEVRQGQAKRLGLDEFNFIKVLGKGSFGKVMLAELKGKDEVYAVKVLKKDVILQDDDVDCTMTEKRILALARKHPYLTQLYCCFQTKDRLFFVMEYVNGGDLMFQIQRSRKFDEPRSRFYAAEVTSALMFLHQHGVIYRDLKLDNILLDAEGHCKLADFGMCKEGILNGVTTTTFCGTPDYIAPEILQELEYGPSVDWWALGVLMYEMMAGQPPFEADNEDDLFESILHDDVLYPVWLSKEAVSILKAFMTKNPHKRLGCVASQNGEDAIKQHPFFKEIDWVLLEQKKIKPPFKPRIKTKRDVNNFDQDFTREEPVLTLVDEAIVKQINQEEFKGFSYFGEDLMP", "conditions": "Compound concentration 1000.0 nM"}},
  "note": "Calls of active or inactive are those of the source. The rule behind the calls is not given here.",
  "data": [
    {"smiles": "CCc1ccccc1C(=O)Nc1n[nH]c2c(C)c(F)c(C3C(C#N)=C(C)N(C)C(C)=C3C#N)cc12", "note": "[BAY-3827]", "values": [
      {"measurement": "residual activity", "setting": "[1]", "result": 78, "unit": "%"},
      {"measurement": "residual activity", "setting": "[2]", "result": 16, "unit": "%"},
      {"measurement": "residual activity", "setting": "[3]", "result": 77, "unit": "%"},
      {"measurement": "residual activity", "setting": "[4]", "result": 86, "unit": "%"},
      {"measurement": "residual activity", "setting": "[5]", "result": 88, "unit": "%"},
      {"measurement": "IC50", "setting": "[6]", "result": "0.015 µM (active)"},
      {"measurement": "residual activity", "setting": "[7]", "result": 61, "unit": "%"},
      {"measurement": "residual activity", "setting": "[8]", "result": 1, "unit": "%"},
      {"measurement": "residual activity", "setting": "[9]", "result": 100, "unit": "%"},
      {"measurement": "residual activity", "setting": "[10]", "result": 75, "unit": "%"},
      {"measurement": "residual activity", "setting": "[11]", "result": 19, "unit": "%"}
    ]},
    {"smiles": "CC1=C(C#N)C(c2ccc3c(c2)c(NC(=O)c2ccccc2C)nn3C)C(C#N)=C(C)N1", "note": "[BAY-974]", "values": [
      {"measurement": "residual activity", "setting": "[1]", "result": 98, "unit": "%"},
      {"measurement": "residual activity", "setting": "[2]", "result": 74, "unit": "%"},
      {"measurement": "residual activity", "setting": "[3]", "result": 100, "unit": "%"},
      {"measurement": "residual activity", "setting": "[4]", "result": 89, "unit": "%"},
      {"measurement": "residual activity", "setting": "[5]", "result": 99, "unit": "%"},
      {"measurement": "IC50", "setting": "[6]", "result": "> 20 µM (not active)"},
      {"measurement": "residual activity", "setting": "[7]", "result": 87, "unit": "%"},
      {"measurement": "residual activity", "setting": "[8]", "result": 91, "unit": "%"},
      {"measurement": "residual activity", "setting": "[9]", "result": 77, "unit": "%"},
      {"measurement": "residual activity", "setting": "[10]", "result": 100, "unit": "%"},
      {"measurement": "residual activity", "setting": "[11]", "result": 85, "unit": "%"}
    ]}
  ]
}
